This note sets out measurements from PMC6424628 (Neuropharmacology, 2019).

Assay [1] has as its target dopamine transporter (hDAT) (Homo sapiens, UniProt Q01959). Kind of assay: [3H]DA uptake inhibition in COS-7 cells expressing hDAT. Type of assay: cell-based.
The target in assay [2] is norepinephrine transporter (hNET) (Homo sapiens, UniProt P23975). Kind of assay: [3H]NE uptake inhibition in COS-7 cells expressing hNET. Type of assay: cell-based.
Sequence of norepinephrine transporter (hNET) (P23975 whole entry): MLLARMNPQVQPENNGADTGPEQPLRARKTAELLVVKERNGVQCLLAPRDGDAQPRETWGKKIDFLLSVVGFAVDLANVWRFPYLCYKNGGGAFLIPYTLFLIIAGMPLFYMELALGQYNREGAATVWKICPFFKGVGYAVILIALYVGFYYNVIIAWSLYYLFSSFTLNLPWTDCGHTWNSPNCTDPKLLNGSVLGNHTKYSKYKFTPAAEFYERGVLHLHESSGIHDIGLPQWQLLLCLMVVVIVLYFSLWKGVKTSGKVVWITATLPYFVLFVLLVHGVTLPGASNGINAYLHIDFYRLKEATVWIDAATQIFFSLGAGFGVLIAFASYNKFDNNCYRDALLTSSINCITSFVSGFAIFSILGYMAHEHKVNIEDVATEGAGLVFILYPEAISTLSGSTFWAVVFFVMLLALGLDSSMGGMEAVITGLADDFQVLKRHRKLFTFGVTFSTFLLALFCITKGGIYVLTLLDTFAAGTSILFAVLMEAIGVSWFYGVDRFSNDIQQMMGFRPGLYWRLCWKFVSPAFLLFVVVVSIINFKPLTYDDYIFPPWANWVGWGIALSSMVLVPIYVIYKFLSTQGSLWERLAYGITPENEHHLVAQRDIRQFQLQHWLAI

Sequence of dopamine transporter (hDAT) (Q01959 whole entry): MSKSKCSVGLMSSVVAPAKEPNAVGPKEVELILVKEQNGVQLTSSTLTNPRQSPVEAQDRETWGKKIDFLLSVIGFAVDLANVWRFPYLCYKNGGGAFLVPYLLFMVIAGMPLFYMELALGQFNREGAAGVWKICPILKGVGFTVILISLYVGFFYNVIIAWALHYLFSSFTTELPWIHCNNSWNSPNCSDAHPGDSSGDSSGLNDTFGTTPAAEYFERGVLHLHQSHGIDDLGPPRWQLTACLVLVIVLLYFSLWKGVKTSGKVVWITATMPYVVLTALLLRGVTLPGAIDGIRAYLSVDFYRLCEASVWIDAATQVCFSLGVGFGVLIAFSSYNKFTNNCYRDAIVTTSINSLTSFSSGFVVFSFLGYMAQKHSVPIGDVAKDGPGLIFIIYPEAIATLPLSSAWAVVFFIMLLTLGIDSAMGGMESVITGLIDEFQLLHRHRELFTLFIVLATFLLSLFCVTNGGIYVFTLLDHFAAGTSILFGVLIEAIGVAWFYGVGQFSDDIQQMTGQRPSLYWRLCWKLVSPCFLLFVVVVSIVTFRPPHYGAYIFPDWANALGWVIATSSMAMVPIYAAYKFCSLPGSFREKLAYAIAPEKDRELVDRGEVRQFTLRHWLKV

For `CC(N)CCc1ccccc1Cl` (centres unmarked) [SK609], the results for the Ki in assay [1] and in assay [2] were 5.7 ± 1.3 µM and 0.57 ± 0.11 µM, respectively.

As a reminder, the Ki is the equilibrium dissociation constant of an inhibitor or competing ligand from its target. Read a high Ki as a looser hold on the target.
